Biological target: T1, DYRK1A (Homo sapiens (Human), UniProt Q13627)
Test: DYRK1A kinase inhibition, 33P-ATP filter-binding method
Format: biochemical
Details: IC50 grade; head prints μM, key nM
Description: Particularly, a substrate was added to a basic reaction buffer (20 mM Hepes (pH 7.5), 10 mM MgCl2, 1 mM EGTA, 0.02% Brij35, 0.02 mg/ml BSA, 0.1 mM Na3VO4, 2 mM DTT, 1% DMSO), to which cofactors necessary for the reaction were added. Then, DYRK1A kinase was added thereto, followed by mixing well. Each compound of Examples was added thereto by using acoustic technology (Echo550; nanoliter range). The mixture was left at room temperature for 20 minutes and then ^33P-ATP (specific activity 10 mCi/ml) was added to initiate the reaction. After reacting at room temperature for 2 hours, spotting was performed on P81 exchange paper. Upon completion of the reaction, kinase activity was detected using a filter-binding method.

IC50 [µM] | SMILES
> 0.1 | CNc1cc(Nc2ccc(C(=O)N3CCO[C@@H](C)C3)cc2OC)nc2[nH]cc(C#N)c12 [Example 23, (S)-6-((2-methoxy-4-(2-methylmorpholine-4-carbonyl)phenyl)amino)-4-(methylamino)-1H-pyrrolo[2,3-b]pyridine-3-carbonitrile]
< 0.01 | COCCNc1cc(Nc2ccc(C(=O)N3CCC(N4CCOCC4)CC3)cc2OC)nc2[nH]cc(C(F)(F)F)c12 [Example 65, (3-methoxy-4-((4-((2-methoxyethyl)amino)-3-(trifluoromethyl)-1H-pyrrolo[2,3-b]pyridin-6-yl)amino)phenyl) (4-morpholinopiperidin-1-yl)methanone]
< 0.01 | CCCNc1cc(Nc2ccc(C(=O)N3CCOCC3)cc2OC)nc2[nH]cc(C#N)c12 [Example 10, 6-((2-methoxy-4-(morpholine-4-carbonyl)phenyl)amino)-4-(propylamino)-1H-pyrrolo[2,3-b]pyridine-3-carbonitrile]
> 0.1 | CNc1cc(Nc2ccc(C(=O)N3CCOCC3)cc2OC)nc2[nH]cc(C#N)c12 [Example 1, 6-((2-methoxy-4-(morpholine-4-carbonyl)phenyl)amino)-4-(methylamino)-1H-pyrrolo[2,3-b]pyridine-3-carbonitrile]
< 0.01 | CNc1cc(Nc2ccc(C(=O)N3CCC(N4CCOCC4)CC3)cc2OC)nc2[nH]cc(C(F)(F)F)c12 [Example 59, (3-methoxy-4-((4-(methylamino)-3-(trifluoromethyl)-1H-pyrrolo[2,3-b]pyridin-6-yl)amino)phenyl) (4-morpholinopiperidin-1-yl)methanone]
< 0.01 | CNc1cc(Nc2ccc(C(=O)N3CCN(C)CC3)cc2OC)nc2[nH]cc(C(F)(F)F)c12 [Example 63, (3-methoxy-4-((4-(methylamino)-3-(trifluoromethyl)-1H-pyrrolo[2,3-b]pyridin-6-yl)amino)phenyl) (4-methylpiperazin-1-yl)methanone]
> 0.1 | COCCNc1cc(Nc2ccc(C(=O)N3CCOCC3)cc2OC)nc2[nH]cc(C#N)c12 [Example 4, 6-((2-methoxy-4-(morpholine-4-carbonyl)phenyl)amino)-4-((2-methoxyethyl)amino)-1H-pyrrolo[2,3-b]pyridine-3-carbonitrile]
< 0.01 | COCCNc1cc(Nc2ccc(C(=O)N3CCC(N4CCN(C)CC4)CC3)cc2OC)nc2[nH]cc(C(F)(F)F)c12 [Example 67]
< 0.01 | CCNc1cc(Nc2ccc(C(=O)N3CCOCC3)cc2OC)nc2[nH]cc(C#N)c12 [Example 2, 4-(ethylamino)-6-((2-methoxy-4-(morpholine-4-carbonyl)phenyl)amino)-1H-pyrrolo[2,3-b]pyridine-3-carbonitrile]
< 0.01 | CNc1cc(Nc2ccc(C(=O)N3CCC(N4CCN(C)CC4)CC3)cc2OC)nc2[nH]cc(C(F)(F)F)c12 [Example 61, (3-methoxy-4-((4-(methylamino)-3-(trifluoromethyl)-1H-pyrrolo[2,3-b]pyridin-6-yl)amino)phenyl) (4-(4-methylpiperazin-1-yl)piperidin-1-yl)methanone]
< 0.01 | CCNc1cc(Nc2ccc(C(=O)N3CCOCC3)cc2OC)nc2[nH]cc(C(F)(F)F)c12 [Example 56, (4-((4-(ethylamino)-3-(trifluoromethyl)-1H-pyrrolo[2,3-b]pyridin-6-yl)amino)-3-methoxyphenyl) (morpholino)methanone]
> 0.1 | CCNc1cc(Nc2ccc(C(=O)N3CCO[C@@H](C)C3)cc2OC)nc2[nH]cc(C#N)c12 [Example 27, (S)-4-(ethylamino)-6-((2-methoxy-4-(2-methylmorpholine-4-carbonyl)phenyl)amino)-1H-W pyrrolo[2,3-b]pyridine-3-carbonitrile]

SMILES | IC50 [µM]
CNc1cc(Nc2cc(F)c(C(=O)N3CCN(C)CC3)cc2OC)nc2[nH]cc(C(F)(F)F)c12 [Example 60, (2-fluoro-5-methoxy-4-((4-(methylamino)-3-(trifluoromethyl)-1H-pyrrolo[2,3-b]pyridin-6-yl)amino)phenyl) (4-methylpiperazin-1-yl)methanone] | 0.01 to 0.1
COCCNc1cc(Nc2cc(OC)c(OC)c(OC)c2)nc2[nH]cc(C#N)c12 [Example 5, 4-((2-methoxyethyl)amino)-6-((3,4,5-trimethoxyphenyl)amino)-1H-pyrrolo[2,3-b]pyridine-3-carbonitrile] | 0.01 to 0.1
CCNc1cc(Nc2cc(OC)c(OC)c(OC)c2)nc2[nH]cc(C(F)(F)F)c12 [Example 53, N^4-ethyl-3-(trifluoromethyl)-N^6-(3,4,5-trimethoxyphenyl)-1H-pyrrolo[2,3-b]pyridine-4,6-diamine] | 0.01 to 0.1

Tested on: Drosophila over-expressing minibrain specifically in wings
Test: wing vein developmental abnormality, Drosophila over-expressing minibrain specifically in wings
Format: in vivo
Details: medium supplemented with compound at 10 μM
Description: To confirm the DYRK1A inhibitory effect of the compound according to the present invention in vivo, wings of the Drosophila model over-expressing minibrain gene specifically in wings were observed. First, in order to produce Drosophila over-expressing minibrain specifically in wings, the UAS-Minibrain transformed Drosophila was mated with the wing specific promoter MS1096-Gal4 transformed Drosophila, resulting in the production of F1 generation. Next, the effect of improving wing defects was confirmed to verify the DYRK1A inhibitory effect of the compound according to the present invention using the Drosophila DYRK1A/minibrain inhibitor discovery model. A medium supplemented with the compound at the concentration of 10 μM was prepared, in which embryos of Drosophila over-expressing minibrain specifically in wings were raised, followed by investigation of wing phenotype.

SMILES | inhibition of the wing vein developmental abnormality [%]
CNc1cc(Nc2ccc(C(=O)N3CCOCC3)cc2OC)nc2[nH]cc(C(F)(F)F)c12 [Example 58, (3-methoxy-4-((4-(methylamino)-3-(trifluoromethyl)-1H-pyrrolo[2,3-b]pyridin-6-yl)amino)phenyl) (morpholino)methanone] | 47.9
CNc1cc(Nc2ccc(C(=O)N3CCN(C)CC3)cc2OC)nc2[nH]cc(C(F)(F)F)c12 [Example 63, (3-methoxy-4-((4-(methylamino)-3-(trifluoromethyl)-1H-pyrrolo[2,3-b]pyridin-6-yl)amino)phenyl) (4-methylpiperazin-1-yl)methanone] | 43.8
CNc1cc(Nc2ccc(N3CCN(C)CC3)cc2OC)nc2[nH]cc(C(F)(F)F)c12 [Example 62, N^6-(2-methoxy-4-(4-methylpiperazin-1-yl)phenyl)-N^4-methyl-3-(trifluoromethyl)-1H-pyrrolo[2,3-b]pyridine-4,6-diamine] | 47.7

Tested on: mouse pancreatic β-cell
Test: mouse pancreatic β-cell proliferation (Ki-67/insulin staining)
Format: cell-based
Details: mouse pancreatic β-cells cultured with compound for 72 hours
Description: It is known that when human β-cells are treated with harmine that inhibits DYRK1A, the proliferation of β-cells is promoted by increasing the transcription factor activity by inhibiting the phosphorylation of NFAT known as a phosphorylation substrate of DYRK1A.
Particularly, pancreatic Langerhans islet tissues were extracted from the mouse at 8 weeks old, followed by culture in RPMI1640 medium supplemented with 10% FCS (fetal calves serum), 5.5 mM glucose and 1% penicillin-streptomycin for 24 hours.
Next, in order to separate β-cells as single cells from the Langerhans islet, cells were washed twice with PBS, followed by centrifugation. The collected cells were left in the medium supplemented with 1 mg/ml of trypsin for 10 minutes at 37° C. The cells were shaken using a pipette every 10 seconds for 5 minutes. Trypsin reaction was terminated by adding RPMI1640 containing 10% FCS (fetal calves serum), 5.5 mM glucose and 1% penicillin-streptomycin, followed by centrifugation to collect single cells.
Then, the single cells were loaded on the laminin-coated cover glass and stabilized for 24 hours. The cells were cultured in the medium containing the compound of the present invention for 72 hours. […] The cells double-stained with Ki-67/insulin were counted under Olympus F-1000 confocal fluorescence microscope to investigate cell proliferation.

SMILES | cell proliferation
COc1ccc2c(c1)[nH]c1c(C)nccc12 [harmine, reference compound] | active

Biological target: T1, DYRK1A
Test: DYRK1A kinase binding assay using LanthaScreen Eu
Details: not given

SMILES | IC50 [nM]
COCCN(C)c1cc(Nc2ccc(C(=O)N3CCOCC3)cc2OC)nc2[nH]cc(C(F)(F)F)c12 [Example 87] | 10 to 100
CCNc1cc(Nc2cc(F)c(C(=O)NC3CCN(C(C)C)CC3)cc2OC)nc2[nH]cc(C(F)(F)F)c12 [Example 74] | 10 to 100
COCCNc1cc(Nc2ccc(C(=O)N3CCN(C)CC3)cc2OC)nc2[nH]cc(C(F)(F)F)c12 [Example 66, (3-methoxy-4-((4-((2-methoxyethyl)amino)-3-(trifluoromethyl)-1H-pyrrolo[2,3-b]pyridin-6-yl)amino)phenyl) (4-methylpiperazin-1-yl)-methanone] | 10 to 100
COc1cc(C(=O)N2CCC(N3CCOCC3)CC2)ccc1Nc1cc(NC(C)C)c2c(C(F)(F)F)c[nH]c2n1 [Example 90, (4-(4-(isopropylamino)-3-(trifluoromethyl)-1H-pyrrolo[2,3-b]pyridin-6-ylamino)-3-methoxyphenyl) (4-morpholinopiperidin-1-yl)methanone] | 10 to 100
COCCNc1cc(Nc2cc(F)c(C(=O)NC3CCN(C)CC3)cc2OC)nc2[nH]cc(C(F)(F)F)c12 [Example 73, 2-fluoro-5-methoxy-4-((4-((2-methoxyethyl)amino)-3-(trifluoromethyl)-1H-pyrrolo[2,3-b]pyridin-6-yl)amino) (1-methylpiperidin-4-yl)benzamide] | 10 to 100
COCCN(C)c1cc(Nc2ccc(C(=O)N3CCC(N4CCOCC4)CC3)cc2OC)nc2[nH]cc(C(F)(F)F)c12 [Example 88] | 10 to 100
CCNc1cc(Nc2ccc(C(=O)N3CCC(N4CCN(C)CC4)CC3)cc2OC)nc2[nH]cc(C(F)(F)F)c12 [Example 70] | 10 to 100
COc1cc(C(=O)N2CCOCC2)ccc1Nc1cc(NC2CC2)c2c(C(F)(F)F)c[nH]c2n1 [Example 95, (4-((4-(cyclopropylamino)-3-(trifluoromethyl)-1H-pyrrolo[2,3-b]pyridin-6-yl)amino)-3-methoxyphenyl) (morpholino) methanone] | 10 to 100
COc1cc(C(=O)N2CCC(N3CCOCC3)CC2)ccc1Nc1cc(N[C@@H](CO)C(C)C)c2c(C(F)(F)F)c[nH]c2n1 [Example 91] | 10 to 100
COCCNc1cc(Nc2ccc(C(=O)N3CCOCC3)cc2OC)nc2[nH]cc(C(F)(F)F)c12 [Example 64, (3-methoxy-4-((4-((2-methoxyethyl)amino)-3-(trifluoromethyl)-1H-pyrrolo[2,3-b]pyridine-6yl)amino)phenyl) (morpholino)methanone] | 10 to 100
